Assay results as given in US20240252488A1 (KOREA RESEARCH INSTITUTE OF CHEMICAL TECHNOLOGY, priority 2020, published 2024).

Columns and labels:
FADD−/− Jurkat cells = assay: Necroptosis inhibition assay, TNF-α-induced necroptosis (CellTiter-Glo 2.0); type: cell-based, human; conditions: TNF-α 15 ng/mL, FADD−/− Jurkat cells; for Necroptosis inhibition assay (Rescue %) 1 μM: compound 1 μM; for Necroptosis inhibition assay (Rescue %) 10 μM: compound 10 μM
Procedure, shortened: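 Compound is added to cells at final concentrations of 0.1, 1 and 10 μM and left 30 minutes at room temperature. Necroptosis is induced with 15 ng/mL TNF-α, culture continues 20 to 24 hours at 37° C, and ATP-based luminescence reports viability.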

MLKL [1] = target: T1, MLKL (Homo sapiens, UniProt Q8NB16); assay: Measurement of binding affinity with MLKL receptor (competitive binding assay, Kd); design: made in house; host or cells: HEK 293 cell line (T7 phage in E. coli BL21-derived host is also described)
T1 sequence (Q8NB16 1-471): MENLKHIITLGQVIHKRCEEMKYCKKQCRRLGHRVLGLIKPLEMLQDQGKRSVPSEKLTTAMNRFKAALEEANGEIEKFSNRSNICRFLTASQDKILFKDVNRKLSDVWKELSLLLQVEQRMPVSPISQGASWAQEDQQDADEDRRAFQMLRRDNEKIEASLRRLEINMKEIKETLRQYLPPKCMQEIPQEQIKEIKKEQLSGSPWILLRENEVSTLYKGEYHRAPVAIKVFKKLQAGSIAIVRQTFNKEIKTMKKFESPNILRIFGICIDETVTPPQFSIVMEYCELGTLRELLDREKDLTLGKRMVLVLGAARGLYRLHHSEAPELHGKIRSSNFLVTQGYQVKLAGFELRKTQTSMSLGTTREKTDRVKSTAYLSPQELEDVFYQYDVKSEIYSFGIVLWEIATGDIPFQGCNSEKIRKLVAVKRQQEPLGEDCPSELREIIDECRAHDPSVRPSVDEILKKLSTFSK
Procedure, shortened: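 Kd from an immobilized-ligand competition format: the DNA-tagged kinase from HEK 293 expression is eluted and quantified by qPCR. Compounds added from 111× DMSO stocks, final DMSO 0.9%.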

MLKL [2] = target: T1, MLKL; assay: MLKL degradation assay in HepG2 cell line (western blot); type: cell-based; design: endogenous in cells; host or cells: HepG2 or HaCaT; conditions: cell line not given; for Degradation assay (Degradation %) 1 μM: compound 1 μM; for Degradation assay (Degradation %) 10 μM: compound 10 μM
Procedure, shortened: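 Chemiluminescent western blot signal reports remaining MLKL protein in HepG2 cells after 20-24 h treatment with compound at a final 1 or 10 μM. Equal protein (10-15 μg, BCA) is loaded per lane.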

SMILES | Kd (MLKL [1]) | Degradation assay (Degradation %) 1 μM (MLKL [2]) | Degradation assay (Degradation %) 10 μM (MLKL [2]) | Necroptosis inhibition assay (Rescue %) 1 μM (FADD−/− Jurkat cells) | Necroptosis inhibition assay (Rescue %) 10 μM (FADD−/− Jurkat cells)
Nc1ncc(-c2cnn(C3CCN(CCOC4CCN(C(=O)C5CN(C6=CC(=O)N(C7CCC(=O)NC7=O)C6=O)C5)CC4)CC3)c2)nc1C(=O)O[C@@H](C(=O)Nc1ccc(F)cc1)c1ccccc1 (stereo partly drawn) [TDH-541, (R)-2-((4-fluorophenyl)amino)-2-oxo-1-phenylethyl 3-amino-6-(1-(1-(2-((1-(1-(1-(2,6-dioxopiperidin-3-yl)-2,5-dioxo-2,5-dihydro-1H-pyrrol-3-yl)azetidine-3-carbonyl)piperidin-4-yl)oxy)ethyl)piperidin-4-yl)-1H-pyrazol-4-yl)pyrazine-2-carboxylate] | 0.34 nM | 78.24% | 69.17% | 24.95% | 24.58%
Nc1ncc(-c2cnn(C3CCN(CCCN4CCN(C(=O)c5cccc(C(=O)NC6CCC(=O)NC6=O)c5)CC4)CC3)c2)nc1C(=O)O[C@@H](C(=O)Nc1ccc(F)cc1)c1ccccc1 (stereo partly drawn) [TDH-542, (R)-2-((4-fluorophenyl)amino)-2-oxo-1-phenylethyl 3-amino-6-(1-(1-(3-(4-(3-((2,6-dioxopiperidin-3-yl)carbamoyl)benzoyl)piperazin-1-yl)propyl)piperidin-4-yl)-1H-pyrazol-4-yl)pyrazine-2-carboxylate] | 0.53 nM | 84.12% | 72.45% | 24.80% | 29.40%
Nc1ncc(-c2cnn(C3CCN(CCC4CCN(C(=O)c5cccc(C(=O)NC6CCC(=O)NC6=O)c5)CC4)CC3)c2)nc1C(=O)O[C@@H](C(=O)Nc1ccc(F)cc1)c1ccccc1 (stereo partly drawn) [TDH-543, (R)-2-((4-fluorophenyl)amino)-2-oxo-1-phenylethyl 3-amino-6-(1-(1-(2-(1-(3-((2,6-dioxopiperidin-3-yl)carbamoyl)benzoyl)piperidin-4-yl)ethyl)piperidin-4-yl)-1H-pyrazol-4-yl)pyrazine-2-carboxylate] | 0.23 nM | 76.24% | 80.46% | 37.86% | 26.19%
Nc1ncc(-c2cnn(C3CCN(CCOC4CCN(C(=O)c5cccc(C(=O)NC6CCC(=O)NC6=O)c5)CC4)CC3)c2)nc1C(=O)O[C@@H](C(=O)Nc1ccc(F)cc1)c1ccccc1 (stereo partly drawn) [TDH-545, (R)-2-((4-fluorophenyl)amino)-2-oxo-1-phenylethyl 3-amino-6-(1-(1-(2-((1-(3-((2,6-dioxopiperidin-3-yl)carbamoyl)benzoyl)piperidin-4-yl)oxy)ethyl)piperidin-4-yl)-1H-pyrazol-4-yl)pyrazine-2-carboxylate] | 0.28 nM | 65.64% | 74.02% | 32.16% | 41.07%
Nc1ncc(-c2cnn(C3CCN(CCCN4CCN(C(=O)c5ccc6c(N7CCC(=O)NC7=O)coc6c5)CC4)CC3)c2)nc1C(=O)O[C@@H](C(=O)Nc1ccc(F)cc1)c1ccccc1 [TDH-551, (R)-2-((4-fluorophenyl)amino)-2-oxo-1-phenylethyl 3-amino-6-(1-(1-(3-(4-(3-(2,4-dioxotetrahydropyrimidin-1(2H)-yl)benzofuran-6-carbonyl)piperazin-1-yl)propyl)piperidin-4-yl)-1H-pyrazol-4-yl)pyrazine-2-carboxylate] | 0.3 nM | 88.03% | 83.80% | 40.61% | 10.85%

More lines, main results first:

Kd (MLKL [1]) | Degradation assay (Degradation %) 1 μM (MLKL [2]) | Degradation assay (Degradation %) 10 μM (MLKL [2]) | SMILES | Necroptosis inhibition assay (Rescue %) 1 μM (FADD−/− Jurkat cells) | Necroptosis inhibition assay (Rescue %) 10 μM (FADD−/− Jurkat cells)
0.5 nM | 69.45% | 82.68% | Nc1ncc(-c2cnn(C3CCN(C4CC5(CCN(CC6CCN(C(=O)c7cccc(C(=O)NC8CCC(=O)NC8=O)c7)CC6)CC5)C4)CC3)c2)nc1C(=O)O[C@@H](C(=O)Nc1ccc(F)cc1)c1ccccc1 (stereo partly drawn) [TDH-544, (R)-2-((4-fluorophenyl)amino)-2-oxo-1-phenylethyl 3-amino-6-(1-(1-(7-((1-(3-((2,6-dioxopiperidin-3-yl)carbamoyl)benzoyl)piperidin-4-yl)methyl)-7-azaspiro[3.5]nonan-2-yl)piperidin-4-yl)-1H-pyrazol-4-yl)pyrazine-2-carboxylate] | 35.33% | 31.42%
0.4 nM | 70.89% | 81.41% | Nc1ncc(-c2cnn(C3CCN(CC4CCN(CC5CCN(C(=O)c6cccc(C(=O)NC7CCC(=O)NC7=O)c6)CC5)CC4)CC3)c2)nc1C(=O)O[C@@H](C(=O)Nc1ccc(F)cc1)c1ccccc1 (stereo partly drawn) [TDH-546, (R)-2-((4-fluorophenyl)amino)-2-oxo-1-phenylethyl 3-amino-6-(1-(1-((1-((1-(3-((2,6-dioxopiperidin-3-yl)carbamoyl)benzoyl)piperidin-4-yl)methyl)piperidin-4-yl)methyl)piperidin-4-yl)-1H-pyrazol-4-yl)pyrazine-2-carboxylate] | 31.08% | 28.77%
0.43 nM | 93.36% | 68.21% | Nc1ncc(-c2cnn(C3CCN(CCC4CCN(C(=O)c5ccc6c(c5)CN(C5CCC(=O)NC5=O)C6=O)CC4)CC3)c2)nc1C(=O)O[C@@H](C(=O)Nc1ccc(F)cc1)c1ccccc1 (stereo partly drawn) [TDH-547, (R)-2-((4-fluorophenyl)amino)-2-oxo-1-phenylethyl 3-amino-6-(1-(1-(2-(1-(2-(2,6-dioxopiperidin-3-yl)-1-oxoisoindoline-5-carbonyl)piperidin-4-yl)ethyl)piperidin-4-yl)-1H-pyrazol-4-yl)pyrazine-2-carboxylate] | 35.18% | 19.80%
0.19 nM | 89.05% | 85.68% | Nc1ncc(-c2cnn(C3CCN(C4CC5(CCN(CC6CCN(C(=O)c7ccc8c(c7)CN(C7CCC(=O)NC7=O)C8=O)CC6)CC5)C4)CC3)c2)nc1C(=O)O[C@@H](C(=O)Nc1ccc(F)cc1)c1ccccc1 (stereo partly drawn) [TDH-548, (R)-2-((4-fluorophenyl)amino)-2-oxo-1-phenylethyl 3-amino-6-(1-(1-(7-((1-(2-(2,6-dioxopiperidin-3-yl)-1-oxoisoindoline-5-carbonyl)piperidin-4-yl)methyl)-7-azaspiro[3.5]nonan-2-yl)piperidin-4-yl)-1H-pyrazol-4-yl)pyrazine-2-carboxylate] | 64.86% | 31.41%
0.64 nM | 84.54% | 34.92% | Nc1ncc(-c2cnn(C3CCN(CCOC4CCN(C(=O)c5ccc6c(c5)CN(C5CCC(=O)NC5=O)C6=O)CC4)CC3)c2)nc1C(=O)O[C@@H](C(=O)Nc1ccc(F)cc1)c1ccccc1 (stereo partly drawn) [TDH-549, (R)-2-((4-fluorophenyl)amino)-2-oxo-1-phenylethyl 3-amino-6-(1-(1-(2-((1-(2-(2,6-dioxopiperidin-3-yl)-1-oxoisoindoline-5-carbonyl)piperidin-4-yl)oxy)ethyl)piperidin-4-yl)-1H-pyrazol-4-yl)pyrazine-2-carboxylate] | 35.84% | 25.21%
0.53 nM | 88.92% | 86.09% | Nc1ncc(-c2cnn(C3CCN(CC4CCN(CC5CCN(C(=O)c6ccc7c(c6)CN(C6CCC(=O)NC6=O)C7=O)CC5)CC4)CC3)c2)nc1C(=O)O[C@@H](C(=O)Nc1ccc(F)cc1)c1ccccc1 (stereo partly drawn) [TDH-550, (R)-2-((4-fluorophenyl)amino)-2-oxo-1-phenylethyl 3-amino-6-(1-(1-((1-((1-(2-(2,6-dioxopiperidin-3-yl)-1-oxoisoindoline-5-carbonyl)piperidin-4-yl)methyl)piperidin-4-yl)methyl)piperidin-4-yl)-1H-pyrazol-4-yl)pyrazine-2-carboxylate] | 47.98% | 20.62%
